Experimental data reported in patent US20250195530A1, “POLQ INHIBITORS” (ASTRAZENECA AB, priority 2022, published 2025).

What was measured:
[1] = system: DLD-1 BRCA2−/− cells; assay: Homologous recombination synthetic lethal inhibition of proliferation, DLD-1 BRCA2-/- (Cell Titre Glo 3D); assay type: cell-based; conditions: Homo sapiens, DLD-1, 288 h, DLD-1 BRCA2−/− cells, 12 days; read-out: POLQ PD Prolif Lumin BRCA2 −/− mean pIC50 (converted)
How it was run: (§1)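 Luminescent Cell Titre Glo 3D readout, taken on day 12 for homologous-recombination-deficient DLD-1 BRCA2−/− and day 7 for the wild-type control, after compound refresh on day 6. Compounds spanned 10 μM to 0.51 nM in three-fold steps; IC50 defined as 50% reduction of average maximum signal.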

[2] = system: DLD-1 cells; assay: Inhibition of proliferation, DLD-1 BRCA2 wt control (Cell Titre Glo 3D); assay type: cell-based; conditions: Homo sapiens, DLD-1, 168 h, DLD-1 BRCA2 wt cells, 7 days; read-out: POLQ PD Prolif Lumin DLD1 mean pIC50 (converted)
How it was run: as §1

| Compound | IC50 [2] | IC50 [1] |
| --- | --- | --- |
| CC1(Oc2ncnc3c2nc(-c2ccc(OCCCN4CCNCC4)cc2Cl)n3Cc2ccccc2)CC1 [Example D18, 9-benzyl-8-(2-chloro-4-(3-(piperazin-1-yl)propoxy)phenyl)-6-(1-methylcyclopropoxy)-9H-purine] | 3.16 µM | 0.126 µM |
| CC1(Oc2ncnc3c2nc(-c2ccc(OCC4(F)CNC4)cc2Cl)n3Cc2ccccc2)CC1 [Example D19, 9-benzyl-8-(2-chloro-4-((3-fluoroazetidin-3-yl)methoxy)phenyl)-6-(1-methylcyclopropoxy)-9H-purine] | 5.01 µM | 0.501 µM |
| CN(C)C(=O)COc1ccc(-c2nc3c(OC4(C)CC4)ncnc3n2Cc2ccccc2)c(Cl)c1 [Example D20, 2-(4-(9-benzyl-6-(1-methylcyclopropoxy)-9H-purin-8-yl)-3-chlorophenoxy)-N,N-dimethylacetamide] | > 10 µM | 0.2 µM |
| CNC(=O)COc1ccc(-c2nc3c(OC4(C)CC4)ncnc3n2Cc2ccccc2)c(Cl)c1 [Example D21, 2-(4-(9-benzyl-6-(1-methylcyclopropoxy)-9H-purin-8-yl)-3-chlorophenoxy)-N-methylacetamide] | > 10 µM | 0.126 µM |
| CC(=O)N1CCN(CCCOc2ccc(-c3nc4c(OC5(C)CC5)ncnc4n3Cc3ccccc3)c(Cl)c2)CC1 [Example D22, 1-(4-(3-(4-(9-benzyl-6-(1-methylcyclopropoxy)-9H-purin-8-yl)-3-chlorophenoxy)propyl)piperazin-1-yl)ethan-1-one] | > 10 µM | 0.126 µM |
| CC1(Oc2ncnc3c2nc(-c2ccc(OCCN)cc2Cl)n3Cc2ccccc2)CC1 [Example D23, 2-(4-(9-benzyl-6-(1-methylcyclopropoxy)-9H-purin-8-yl)-3-chlorophenoxy)ethan-1-amine] | 7.94 µM | 0.794 µM |
| CC1(Oc2ncnc3c2nc(-c2ccc(OCC(=O)O)cc2Cl)n3Cc2ccccc2)CC1 [Example D24, 2-(4-(9-benzyl-6-(1-methylcyclopropoxy)-9H-purin-8-yl)-3-chlorophenoxy)acetic acid] | > 10 µM | > 10 µM |
| CC1(Oc2ncnc3c2nc(-c2ccc(OC[C@H]4CCCN4)cc2Cl)n3Cc2ccccc2)CC1 [Example D25, (R)-9-benzyl-8-(2-chloro-4-(pyrrolidin-2-ylmethoxy)phenyl)-6-(1-methylcyclopropoxy)-9H-purine] | 2.51 µM | 0.1 µM |
| CC1(Oc2ncnc3c2nc(-c2ccc(OCC(N)=O)cc2Cl)n3Cc2ccccc2)CC1 [Example D27, 2-(4-(9-benzyl-6-(1-methylcyclopropoxy)-9H-purin-8-yl)-3-chlorophenoxy)acetamide] | > 10 µM | 0.1 µM |
| CC1(Oc2ncnc3c2nc(-c2ccc(OCC(=O)NCCO)cc2Cl)n3Cc2ccccc2)CC1 [Example D28, 2-(4-(9-benzyl-6-(1-methylcyclopropoxy)-9H-purin-8-yl)-3-chlorophenoxy)-N-(2-hydroxyethyl)acetamide] | > 10 µM | 0.0794 µM |
| CC1(Oc2ncnc3c2nc(-c2ccc(OCCNCC(=O)O)cc2Cl)n3Cc2ccccc2)CC1 [Example D29, (2-(4-(9-benzyl-6-(1-methylcyclopropoxy)-9H-purin-8-yl)-3-chlorophenoxy)ethyl)glycine] | > 10 µM | 5.01 µM |
| CN(CCOc1ccc(-c2nc3c(OC4(C)CC4)ncnc3n2Cc2ccccc2)c(Cl)c1)CC(=O)O [Example D30, N-(2-(4-(9-benzyl-6-(1-methylcyclopropoxy)-9H-purin-8-yl)-3-chlorophenoxy)ethyl)-N-methylglycine] | > 10 µM | 1.26 µM |
| CC1(Oc2ncnc3c2nc(-c2ccc(O[C@H]4CNC[C@H]4F)cc2Cl)n3Cc2ccccc2)CC1 [Example D31, 9-benzyl-8-(2-chloro-4-(((3S,4R)-4-fluoropyrrolidin-3-yl)oxy)phenyl)-6-(1-methylcyclopropoxy)-9H-purine] | 7.94 µM | 0.2 µM |
| CC1(Oc2ncnc3c2nc(-c2ccc(O[C@@H]4CCCNC4)cc2Cl)n3Cc2ccccc2)CC1 [Example D32, (R)-9-benzyl-8-(2-chloro-4-(piperidin-3-yloxy)phenyl)-6-(1-methylcyclopropoxy)-9H-purine] | 6.31 µM | 0.126 µM |
| CC1(Oc2ncnc3c2nc(-c2ccc(OC4CCNCC4)cc2Cl)n3Cc2ccccc2)CC1 [Example D33, 9-benzyl-8-(2-chloro-4-(piperidin-4-yloxy)phenyl)-6-(1-methylcyclopropoxy)-9H-purine] | 3.16 µM | 0.0631 µM |
| CC1(Oc2ncnc3c2nc(-c2ccc(OC4CC5(CNC5)C4)cc2Cl)n3Cc2ccccc2)CC1 [Example D34, 8-(4-((2-azaspiro[3.3]heptan-6-yl)oxy)-2-chlorophenyl)-9-benzyl-6-(1-methylcyclopropoxy)-9H-purine] | 3.98 µM | 0.2 µM |
| CC1(Oc2ncnc3c2nc(-c2ccc(OC4CNC4)cc2Cl)n3Cc2ccccc2)CC1 [Example D35, 8-(4-(azetidin-3-yloxy)-2-chlorophenyl)-9-benzyl-6-(1-methylcyclopropoxy)-9H-purine] | 3.98 µM | 0.501 µM |

More lines, main results first:

| IC50 [2] | Compound | IC50 [1] |
| --- | --- | --- |
| 2.51 µM | CN1CCN(CCOc2ccc(-c3nc4c(OC5(C)CC5)ncnc4n3Cc3ccccc3Cl)c(Cl)c2)CC1 [Example E1, 8-(2-chloro-4-(2-(4-methylpiperazin-1-yl)ethoxy)phenyl)-9-(2-chlorobenzyl)-6-(1-methylcyclopropoxy)-9H-purine] | 0.0316 µM |
| 3.16 µM | CN1CCN(CCOc2ccc(-c3nc4c(OC5(C)CC5)ncnc4n3Cc3cccc(Cl)c3)c(Cl)c2)CC1 [Example E2, 8-(2-chloro-4-(2-(4-methylpiperazin-1-yl)ethoxy)phenyl)-9-(3-chlorobenzyl)-6-(1-methylcyclopropoxy)-9H-purine] | 0.0251 µM |
| 3.98 µM | CN1CCN(CCOc2ccc(-c3nc4c(OC5(C)CC5)ncnc4n3Cc3cccc(F)c3F)c(Cl)c2)CC1 [Example E3, 8-(2-chloro-4-(2-(4-methylpiperazin-1-yl)ethoxy)phenyl)-9-(2,3-difluorobenzyl)-6-(1-methylcyclopropoxy)-9H-purine] | 0.0501 µM |
| 7.94 µM | CN1CCN(CCOc2ccc(-c3nc4c(OC5(C)CC5)ncnc4n3CCc3ccccc3)c(Cl)c2)CC1 [Example E4, 8-(2-chloro-4-(2-(4-methylpiperazin-1-yl)ethoxy)phenyl)-6-(1-methylcyclopropoxy)-9-phenethyl-9H-purine] | 0.2 µM |
| 7.94 µM | CN1CCN(CCOc2ccc(-c3nc4c(OC5(C)CC5)ncnc4n3Cc3ccccn3)c(Cl)c2)CC1 [Example E5, 8-(2-chloro-4-(2-(4-methylpiperazin-1-yl)ethoxy)phenyl)-6-(1-methylcyclopropoxy)-9-(pyridin-2-ylmethyl)-9H-purine] | 0.501 µM |
| > 10 µM | CN1CCN(CCOc2ccc(-c3nc4c(OC5(C)CC5)ncnc4n3Cc3ncccn3)c(Cl)c2)CC1 [Example E6, 8-(2-chloro-4-(2-(4-methylpiperazin-1-yl)ethoxy)phenyl)-6-(1-methylcyclopropoxy)-9-(pyrimidin-2-ylmethyl)-9H-purine] | 1.58 µM |
| > 10 µM | CC1(Oc2ncnc3c2nc(-c2ccc(OCCN4CCNCC4)cc2Cl)n3Cc2ccccn2)CC1 [Example E7, 8-(2-chloro-4-(2-(piperazin-1-yl)ethoxy)phenyl)-6-(1-methylcyclopropoxy)-9-(pyridin-2-ylmethyl)-9H-purine] | 1.26 µM |
| > 10 µM | Cc1cc(N2CCC(N)CC2)ncc1-c1nc2c(OC3(C)CC3)ncnc2n1Cc1ccccc1 [Example F1, 1-(5-(9-benzyl-6-(1-methylcyclopropoxy)-9H-purin-8-yl)-4-methylpyridin-2-yl)piperidin-4-amine] | 0.398 µM |
| > 10 µM | Cc1cc(N2CC(N(C)C)C2)ncc1-c1nc2c(OC3(C)CC3)ncnc2n1Cc1ccccc1 [Example F2, 1-(5-(9-benzyl-6-(1-methylcyclopropoxy)-9H-purin-8-yl)-4-methylpyridin-2-yl)-N,N-dimethylazetidin-3-amine] | 0.316 µM |
| > 10 µM | Cc1cc(N2CCC(N(C)C)CC2)ncc1-c1nc2c(OC3(C)CC3)ncnc2n1Cc1ccccc1 [Example F3, 1-(5-(9-benzyl-6-(1-methylcyclopropoxy)-9H-purin-8-yl)-4-methylpyridin-2-yl)-N,N-dimethylpiperidin-4-amine] | 0.251 µM |
| 6.31 µM | Cc1cc(OCCCN2CCNCC2)ncc1-c1nc2c(OC3(C)CC3)ncnc2n1Cc1ccccc1 [Example G1, 9-benzyl-8-(4-methyl-6-(3-(piperazin-1-yl)propoxy)pyridin-3-yl)-6-(1-methylcyclopropoxy)-9H-purine] | 0.501 µM |
| > 10 µM | Cc1cc(OCCCN(C)C)ncc1-c1nc2c(OC3(C)CC3)ncnc2n1Cc1ccccc1 [Example G2, 3-((5-(9-benzyl-6-(1-methylcyclopropoxy)-9H-purin-8-yl)-4-methylpyridin-2-yl)oxy)-N,N-dimethylpropan-1-amine] | 1 µM |
| 6.31 µM | CC(=O)N1CCN(CCCOc2cc(C)c(-c3nc4c(OC5(C)CC5)ncnc4n3Cc3ccccc3)cn2)CC1 [Example G3, 1-(4-(3-((5-(9-benzyl-6-(1-methylcyclopropoxy)-9H-purin-8-yl)-4-methylpyridin-2-yl)oxy)propyl)piperazin-1-yl)ethan-1-one] | 1 µM |
| > 10 µM | CC(=O)N1CCN(CCOc2cc(C)c(-c3nc4c(OC5(C)CC5)ncnc4n3Cc3ccccc3)cn2)CC1 [Example G4, 1-(4-(2-((5-(9-benzyl-6-(1-methylcyclopropoxy)-9H-purin-8-yl)-4-methylpyridin-2-yl)oxy)ethyl)piperazin-1-yl)ethan-1-one] | 1.26 µM |
